From ChEMBL document CHEMBL1201862, “PubChem BioAssay data set” (2004) come the findings set out here.

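Grown in 96-well plates, cells were treated for 48 hours with each compound at five concentrations. Insufficient inhibition: endpoint recorded as highest concentration tested. At the GI50, growth is halved.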 Active and inactive are the calls of the source. No stated cut-off is given here; in the data, active = GI50 up to about 1.1 µM and inactive = higher.

Among the test systems are A498; UO-31; HCT-15; NCI-H226; SK-MEL-28; SR; MDA-MB-435; MDA-MB-231; NCI/ADR-RES; T47D; TK-10; SF-539; EKVX; NCI-H460; SK-MEL-5; HCC 2998; CAKI-1; COLO 205; SN12C.
Common to all, as to assay: DTP human tumour cell line panel, 48 h

As to `CC1=NN(c2cccc(Cl)c2)C(=N/c2nc3ccccc3s2)/C1=C\c1ccccc1O`, the GI50 was 23.2 µM (inactive) in the experiment on A498; 34 µM (inactive) in the experiment with UO-31; 27.6 µM in the experiment with HCT-15; 22.2 µM (inactive) in the experiment on NCI-H226; 27.4 µM (inactive) in the experiment with SK-MEL-28; 40.6 µM (inactive) in the experiment on SR. The GI50 in the experiment with MDA-MB-435 is 33.6 µM (inactive); with MDA-MB-231, 21 µM (inactive); with NCI/ADR-RES, 24 µM (inactive); in the experiment on T47D it was 36.4 µM (inactive); with TK-10, 37.7 µM (inactive); with SF-539, 42.8 µM (inactive). For the same compound, the GI50 in the experiment with EKVX was 64.9 µM (inactive); with NCI-H460, 27.1 µM (inactive); with SK-MEL-5, 19.7 µM (inactive); in the experiment on HCC 2998, 19.6 µM (inactive); in the experiment with CAKI-1, 33.7 µM (inactive).
For the compound `O=C(Nc1nc2ccc([N+](=O)[O-])cc2[n+]([O-])n1)C(F)(F)F`, the GI50 was 4.65 µM (inactive) in the experiment on COLO 205; 29.6 µM (inactive) with A498; 40.8 µM (inactive) in the experiment on UO-31; 16.6 µM in the experiment on HCT-15; 49.8 µM (inactive) in the experiment on NCI-H226; 47.2 µM (inactive) in the experiment with SK-MEL-28. Moreover, the GI50 in the experiment on SR was 29.5 µM (inactive); in the experiment on MDA-MB-435, 17.6 µM (inactive); in the experiment on MDA-MB-231 it was 26.9 µM (inactive); in the experiment on NCI/ADR-RES, 32.4 µM (inactive); in the experiment on T47D it was 35.2 µM (inactive); with SN12C, 29.4 µM (inactive). Besides, the GI50 was 44.2 µM (inactive) in the experiment on TK-10; 45.4 µM (inactive) in the experiment with SF-539; 14.3 µM (inactive) in the experiment with NCI-H460; 12.5 µM (inactive) in the experiment on SK-MEL-5; 49.8 µM (inactive) in the experiment with HCC 2998; 57.3 µM (inactive) with CAKI-1.
For `O=S1(=O)C(c2ccccc2)C(N2CCCCC2)C1C1CC2c3ccccc3C1c1ccccc12` (stereo not drawn), the GI50 was 14.8 µM (inactive) in the experiment with COLO 205; > 100 µM (inactive) in the experiment on A498; > 54.7 µM (inactive) with UO-31; greater than 48.5 µM with HCT-15; > 100 µM (inactive) with NCI-H226; 5.93 µM (inactive) in the experiment on SR. The GI50 is > 30.7 µM (inactive) in the experiment with MDA-MB-435; > 100 µM (inactive) in the experiment with MDA-MB-231; > 28 µM (inactive) in the experiment with NCI/ADR-RES; 10.4 µM (inactive) in the experiment with T47D; > 35.8 µM (inactive) in the experiment on SN12C; > 100 µM (inactive) in the experiment with TK-10. Besides, the GI50 in the experiment with SF-539 is > 100 µM (inactive); in the experiment on EKVX, > 100 µM (inactive); in the experiment with NCI-H460, 17.6 µM (inactive); in the experiment on SK-MEL-5, 45.1 µM (inactive); with CAKI-1, > 100 µM (inactive).
As for `Cc1cc(S(N)(=O)=O)c(S/C(=N\Nc2ccc([N+](=O)[O-])cc2)c2ccc(Cl)cc2)cc1Cl`, the GI50 in the experiment with COLO 205 is 7.87 µM (inactive); in the experiment with A498 it was 4.32 µM (inactive); with UO-31, 4.42 µM (inactive); with HCT-15, 4.3 µM; in the experiment with NCI-H226, 2.22 µM (inactive); in the experiment on SK-MEL-28, 0.573 µM (active). The GI50 in the experiment with SR is 2.94 µM (inactive); in the experiment on MDA-MB-435, 2.27 µM (inactive); with MDA-MB-231, 2.94 µM (inactive); in the experiment with NCI/ADR-RES, 2.64 µM (inactive); in the experiment with T47D, 3.07 µM (inactive); in the experiment on SN12C, 3.23 µM (inactive). The GI50 with TK-10 was 1.79 µM (inactive); with SF-539 it was 1.96 µM (inactive); in the experiment with EKVX, 6.19 µM (inactive); with NCI-H460, 2.17 µM (inactive); in the experiment with SK-MEL-5 it was 3.48 µM (inactive); with CAKI-1 it was 3.42 µM (inactive).
As for `CC[C@@H]1/C=C/C=C/C[C@H](C)[C@@H](O)[C@@H](C)C(=O)[C@H](C)[C@@H](O)[C@H](C)C(=O)[C@H](C)[C@@H](O)[C@H](C)/C=C/C(=O)O[C@H]2[C@@H](C)[C@@H](CC1)O[C@@]1(CC[C@@H](C)[C@@H](CC(C)O)O1)[C@@H]2C` (stereo partly drawn), the concentration for 50% growth inhibition (GI50) in the experiment on COLO 205 was 0.00408 µM (active); in the experiment with A498, 0.0989 µM (active); with HCT-15 it was 4.06 µM; in the experiment on SK-MEL-28 it was 10.6 µM (inactive); in the experiment on SR, 3.01 µM (inactive); in the experiment on MDA-MB-435, 3.11 µM (inactive). In addition, the GI50 in the experiment on MDA-MB-231 was 4.35 µM (inactive); in the experiment with NCI/ADR-RES, 0.596 µM (active); with T47D, < 0.0025 µM (active); in the experiment on SN12C it was 1.94 µM (inactive); with TK-10 it was 0.528 µM (active); in the experiment on SF-539 it was 6.46 µM (inactive). In addition, the concentration for 50% growth inhibition (GI50) in the experiment on EKVX is < 0.0025 µM (active); in the experiment on NCI-H460, 2.17 µM (inactive); with SK-MEL-5, < 0.0025 µM (active); in the experiment on HCC 2998, 1.78 µM (inactive); in the experiment with CAKI-1, 4.15 µM (inactive).
Turning to `O=C(Nc1ccc(Cl)cc1)c1cc(S(=O)(=O)Nc2n[nH]c(=O)n2-c2ccccc2)c(S)cc1Cl`, the GI50 with COLO 205 is > 100 µM (inactive); with A498, > 100 µM (inactive); in the experiment on UO-31, > 100 µM (inactive); in the experiment with HCT-15 it was greater than 100 µM; in the experiment with NCI-H226 it was > 100 µM (inactive); in the experiment with SK-MEL-28 it was > 100 µM (inactive). Besides, the GI50 in the experiment on SR, with MDA-MB-435, with MDA-MB-231, in the experiment on NCI/ADR-RES, in the experiment on T47D and with SN12C was > 100 µM (inactive) in each case. Besides, the GI50 in the experiment with SF-539, in the experiment on EKVX, in the experiment on NCI-H460, with SK-MEL-5, in the experiment with HCC 2998 and in the experiment on CAKI-1 was > 100 µM (inactive) in each case.
`O=C(O)C1C2C=CC(O2)C1C(=O)Nc1ccccc1` (stereo not drawn): the GI50 with COLO 205 was > 100 µM (inactive); with A498, > 100 µM (inactive); with UO-31, > 100 µM (inactive); in the experiment on HCT-15 it was greater than 100 µM; with NCI-H226, > 100 µM (inactive); in the experiment on SK-MEL-28, > 100 µM (inactive). The GI50 in the experiment with SR, with MDA-MB-435, in the experiment with MDA-MB-231, in the experiment with NCI/ADR-RES, with T47D and in the experiment with SN12C was > 100 µM (inactive) throughout. Besides, the GI50 in the experiment with TK-10, with EKVX, in the experiment with SK-MEL-5 and in the experiment on CAKI-1 was > 100 µM (inactive) throughout.
Consider `[O-]c1c[n+](-c2ccccc2)no1`, for which the GI50 in the experiment with COLO 205 was > 100 µM (inactive); in the experiment with A498 it was > 100 µM (inactive); in the experiment on UO-31, > 100 µM (inactive); in the experiment on HCT-15, greater than 100 µM; in the experiment on SK-MEL-28 it was > 100 µM (inactive); in the experiment on SR it was > 100 µM (inactive). In addition, the GI50 with MDA-MB-435, with MDA-MB-231, with NCI/ADR-RES, in the experiment with T47D, in the experiment on SN12C and in the experiment on TK-10 was > 100 µM (inactive) in each case. Also, the GI50 in the experiment with SF-539, in the experiment with EKVX, in the experiment on NCI-H460, in the experiment on SK-MEL-5, with HCC 2998 and in the experiment on CAKI-1 was > 100 µM (inactive) in each case.
On to `Fc1ccc2c3c([nH]c2c1)CCN(Cc1ccccc1)C3`, for which the GI50 in the experiment on COLO 205 was 20.5 µM (inactive); in the experiment with A498 it was 17.8 µM (inactive); in the experiment with UO-31, 12.2 µM (inactive); with HCT-15 it was 21.1 µM; in the experiment on NCI-H226, 19 µM (inactive); in the experiment on SK-MEL-28 it was 16.7 µM (inactive). Besides, the GI50 in the experiment with SR is 18.3 µM (inactive); in the experiment with MDA-MB-435 it was 17.5 µM (inactive); with MDA-MB-231, 24.3 µM (inactive); in the experiment on NCI/ADR-RES, 28.1 µM (inactive); with T47D it was 14.7 µM (inactive); in the experiment on SN12C it was 19.2 µM (inactive). The GI50 in the experiment with TK-10 was > 10 µM (inactive); in the experiment on SF-539, 21.7 µM (inactive); in the experiment with EKVX it was 20.9 µM (inactive); in the experiment with NCI-H460, 17.3 µM (inactive); in the experiment with SK-MEL-5, 22.3 µM (inactive); in the experiment with HCC 2998, 13.2 µM (inactive).
In the case of `CC1(C)Cc2c(cnn2-c2ccc(C(F)(F)F)cc2)-c2[nH]c(-c3ccc(O)cc3)nc21`, the GI50 was 13.7 µM (inactive) in the experiment on COLO 205; 20.4 µM (inactive) in the experiment on A498; 15.3 µM (inactive) in the experiment with UO-31; 11.1 µM in the experiment on HCT-15; 27.2 µM (inactive) with NCI-H226; 13.7 µM (inactive) with SK-MEL-28. The GI50 in the experiment with SR was 4.71 µM (inactive); in the experiment with MDA-MB-435, 17.2 µM (inactive); in the experiment on MDA-MB-231 it was 22.3 µM (inactive); with NCI/ADR-RES, 19.5 µM (inactive); with T47D, 16.7 µM (inactive); in the experiment with SN12C, 16.7 µM (inactive). The GI50 was 16.5 µM (inactive) in the experiment on TK-10; 20.4 µM (inactive) with EKVX; 14.4 µM (inactive) with NCI-H460; 16.9 µM (inactive) with SK-MEL-5; 15.7 µM (inactive) in the experiment with HCC 2998; 17.4 µM (inactive) with CAKI-1.
Regarding `COc1ccc(S(=O)(=O)Nc2ccc(-c3csc(N4C(=O)/C(=C/c5ccccc5[N+](=O)[O-])N=C4c4ccccc4)n3)cc2)cc1Cl`, the GI50 with COLO 205 was 65.8 µM (inactive); in the experiment with A498, 23.8 µM (inactive); with UO-31 it was 32.3 µM (inactive); in the experiment with HCT-15, 29 µM; in the experiment on NCI-H226 it was > 100 µM (inactive); in the experiment on SK-MEL-28, 98.2 µM (inactive). Besides, the GI50 in the experiment on SR is 30.8 µM (inactive); with MDA-MB-435 it was > 100 µM (inactive); in the experiment on MDA-MB-231, 20.3 µM (inactive); in the experiment with NCI/ADR-RES, 86.1 µM (inactive); with T47D, 24.5 µM (inactive); in the experiment on SN12C, > 100 µM (inactive). Further, the GI50 is 53.3 µM (inactive) in the experiment with TK-10; 80.2 µM (inactive) in the experiment with SF-539; 40.8 µM (inactive) with NCI-H460; 43.2 µM (inactive) in the experiment on SK-MEL-5; 22.9 µM (inactive) in the experiment on HCC 2998; > 100 µM (inactive) with CAKI-1.
